{"source": "patent US7517893B2", "about": "“Bichalcophenes and their prodrugs as antiprotozoal agents” (The University of North Carolina at Chapel Hill, priority 2005, dated 2009)", "key": {"[1]": {"test_system": "Trypanosoma brucei rhodesiense", "assay": "In vitro antiprotozoal activity against T. b. r.", "assay_type": "cell-based", "description": "(§1) In vitro antiprotozoal activities were measured following established protocols. […] E., et al., Bioorg."}, "L-6 rat mycoblast cells": {"test_system": "L-6 rat mycoblast cells", "assay": "Cell toxicity assay in L-6 rat mycoblast cells", "assay_type": "cell-based", "settings": "assay for cell toxicity, read-out: L6 Rat Mycoblast Cells IC50", "description": "as §1"}, "Plasmodium falciparum": {"test_system": "Plasmodium falciparum", "assay": "In vitro antiprotozoal activity against P. f.", "assay_type": "cell-based", "description": "as §1"}, "polyA.polyT": {"test_system": "polyA.polyT", "assay": "DNA binding study: increase in thermal melting (ΔTm) of polyA.polyT", "settings": "increase in thermal melting of polyA.polyT in the presence of compound", "description": "DNA binding studies with polyA.polyT were carried out using established protocols. See Wilson, W. D., et al., Biochemistry, 32, 4098-4104 (1993)."}, "[2]": {"test_system": "STIB 900 strain of Trypanosoma brucei rhodesiense", "assay": "In vivo activity against T. b. r. STIB 900 in a mouse model", "settings": "for Survival: average days of survival, mice, untreated controls die between day 7 and 8; for Survival / Cures: days 3-6 post-infection; for in vivo activity against T. b. r. (in words) / cure rate compared with pentamidine and furamidine (in words): murine model; for cure rate compared with pentamidine and furamidine (in words): T. b. r. STIB 900; for Cures: number of mice that survive and are parasite free for 60 days, groups of four mice", "description": "The activities of compounds 6, 8, 14, 16 and 17, against the STIB 900 strain of Trypanosoma brucei rhodesiense (T. b. r.) in a mouse model are shown in Table 2. These values are compared to those of pentamidine and furamidine. Groups of four mice were infected intraperitoneally with […] bloodstream forms of T. b. r. STIB 900 which originates from a patient in Tanzania. On days 3, 4, 5, and 6 post-infection the experimental groups were treated with the drugs either by the intraperitoneal or for prodrugs by the oral route. Usually the highest tolerated dose was used which was determined in a pretoxicological experiment. Parasitemia of the mice was checked daily up to day 14 post-infection and thereafter 2 times per week up to day 60. One group of mice was not treated and acted as control. For relapsing mice, the day of death was recorded and the survival time determined."}, "Leishmania donovani": {"test_system": "Leishmania donovani", "assay": "In vitro antiprotozoal activity against L. d.", "assay_type": "cell-based", "settings": "read-out: L.d. C50", "description": "as §1"}, "[3]": {"test_system": "Trypanosoma brucei rhodesiense, Plasmodium falciparum, Leishmania donovani", "assay": "In vitro antiprotozoal activities, overall statement on prodrugs", "assay_type": "cell-based", "settings": "absence of the enzymes needed for bioconversion to the active diamidines", "description": "In vitro antiprotozoal activities were measured following established protocols. See Ismail, M. A., et al., J. Med. Chem., 46, 4761-4769 (2003); Stephens, C. E., et al., Bioorg. Med. Chem. Lett., 13, 2065-2069 (2003) (in vitro assay against Leishmania donovani). The activities of compounds 8, 14, 16, 17, 19, 22, 26a, 26b, 29a, 29b, and 33, 39, and 45 against Trypanosoma brucei riodesiense (T. b. r.), Plasmodium falciparum (P. f.), Leishmania donovani (L. d.), and L-6 rat mycoblast cells (as an assay for cell toxicity) are shown in Table 1. These values are compared to those of pentamidine and furamidine."}, "[4]": {"settings": "Trypanosoma brucei, RHODESIENSE"}}, "note": "Values joined by “and” are separate entries in the source; they are usually repeats but may differ in a detail not shown here. Identical values can stand only once. Counter-ions that a name gives are not always drawn. Like-named read-outs stand apart in the source and are kept apart here."}
{"smiles": "N=C(N)c1ccc(-c2ccc(-c3ccc(-c4ccc(C(=N)N)cc4)[se]3)[se]2)cc1", "note": "[Compound 29a, 5,5′-Bis-(4-amidinophenyl)-2,2′-biselenophene]", "values": [{"measurement": "IC50", "setting": "[1]", "result": 26, "unit": "nM"}, {"measurement": "IC50", "setting": "[1]; [4]", "result": "≤ 26", "unit": "nM"}, {"measurement": "IC50", "setting": "L-6 rat mycoblast cells", "result": 13400, "unit": "nM"}, {"measurement": "melting point", "result": "> 300", "unit": "°C"}, {"measurement": "IC50", "setting": "Plasmodium falciparum", "result": 14, "unit": "nM"}, {"measurement": "IC50", "setting": "Plasmodium falciparum; Plasmodium falciparum", "result": "≤ 22", "unit": "nM"}]}
{"smiles": "N=C(NO)c1ccc(-c2ccc(-c3ccc(C(=N)NO)o3)o2)nc1", "note": "[Compound 13, N-Hydroxy-6-[5′-(N-hydroxyamidino)-2,2′-bifuran-5-yl]-nicotinamidine]", "values": [{"measurement": "melting point", "result": "248 to 250", "unit": "°C"}]}
{"smiles": "N=C(N)c1ccc(-c2ccc(-c3ccc(C(=N)N)o3)o2)cc1", "note": "[Compound 8, 5′-(4-Amidinophenyl)-2,2′-bifuran-5-carboxamidine]", "values": [{"measurement": "IC50", "setting": "L-6 rat mycoblast cells", "result": 37800, "unit": "nM"}, {"measurement": "IC50", "setting": "Plasmodium falciparum; Plasmodium falciparum", "result": 41.5, "unit": "nM"}, {"measurement": "Δ Tm", "setting": "polyA.polyT", "result": 10.8, "unit": "°C"}, {"measurement": "Survival", "setting": "[2]; ip, 20 mg/kg", "result": ">45.5", "unit": "days"}, {"measurement": "in vivo activity against T. b. r. (in words)", "setting": "[2]", "result": "good in vivo activity"}, {"measurement": "cure rate compared with pentamidine and furamidine (in words)", "setting": "[2]", "result": "better cure rates than pentamidine and furamidine"}, {"measurement": "Cures", "setting": "[2]; ip, 20 mg/kg", "result": "2/4"}]}
{"smiles": "N=C(N)c1ccnc(-c2ccc(-c3ccc(-c4cc(C(=N)N)ccn4)[se]3)[se]2)c1", "note": "[Compound 29b, 5,5′-Bis-(4-amidino-2-pyridyl)-2,2′-biselenophene]", "values": [{"measurement": "IC50", "setting": "[1]; [4]", "result": 153, "unit": "nM"}, {"measurement": "IC50", "setting": "Leishmania donovani", "result": 19800, "unit": "nM"}, {"measurement": "IC50", "setting": "L-6 rat mycoblast cells", "result": "> 144000", "unit": "nM"}, {"measurement": "melting point", "result": "> 300", "unit": "°C"}, {"measurement": "IC50", "setting": "Plasmodium falciparum; Plasmodium falciparum", "result": 76, "unit": "nM"}]}
{"smiles": "N=C(N)c1ccc(-c2ccc(-c3ccc(-c4ccc(C(=N)N)cn4)o3)o2)nc1", "note": "[Compound 22, 5,5′-Bis-(5-amidino-2-pyridyl)-2,2′-bifuran]", "values": [{"measurement": "IC50", "setting": "[1]; [4]", "result": 70, "unit": "nM"}, {"measurement": "IC50", "setting": "Leishmania donovani", "result": "> 100000", "unit": "nM"}, {"measurement": "IC50", "setting": "L-6 rat mycoblast cells", "result": 5100, "unit": "nM"}, {"measurement": "IC50", "setting": "Plasmodium falciparum; Plasmodium falciparum", "result": 29, "unit": "nM"}]}
{"smiles": "N=C(NO)c1ccc(-c2ccc(-c3ccc(C(=N)NO)o3)o2)cc1", "note": "[Compound 6, N-Hydroxy-5′-[4-(N-hydroxyamidino)-phenyl]-2,2′-bifuran-5-carboxamidine]", "values": [{"measurement": "in vitro activity (in words)", "setting": "[3]", "result": "poor in vitro activity"}, {"measurement": "Survival", "setting": "[2]; po, 75 mg/kg", "result": 20, "unit": "days"}, {"measurement": "Cures", "setting": "[2]; po, 75 mg/kg", "result": "0/4"}]}
{"smiles": "N/C(=N\\O)c1ccc(-c2ccc(-c3ccc(-c4ccc(/C(N)=N\\O)cc4)o3)o2)cc1", "note": "[Compound 16, 5,5′-bis-(4-N-Hydroxybenzamidine)-2,2′-bifuran]", "values": [{"measurement": "IC50", "setting": "[1]; [4]", "result": 8700, "unit": "nM"}, {"measurement": "IC50", "setting": "L-6 rat mycoblast cells", "result": "> 182000", "unit": "nM"}, {"measurement": "in vitro activity (in words)", "setting": "[3]", "result": "poor in vitro activity"}, {"measurement": "IC50", "setting": "Plasmodium falciparum; Plasmodium falciparum", "result": 2960, "unit": "nM"}, {"measurement": "Survival", "setting": "[2]; po, 100 mg/kg", "result": 5.5, "unit": "days"}, {"measurement": "Cures", "setting": "[2]; po, 100 mg/kg", "result": "0/4"}]}
{"smiles": "CONC(=N)c1ccc(-c2ccc(-c3ccc(-c4ccc(C(=N)NOC)cc4)o3)o2)cc1", "note": "[Compound 19, 5,5′-Bis-[4-(N-methoxyamidino)phenyl]-2,2′-bifuran]", "values": [{"measurement": "IC50", "setting": "[1]; [4]", "result": 36000, "unit": "nM"}, {"measurement": "IC50", "setting": "L-6 rat mycoblast cells", "result": "> 133000", "unit": "nM"}, {"measurement": "in vitro activity (in words)", "setting": "[3]", "result": "poor in vitro activity"}, {"measurement": "IC50", "setting": "Plasmodium falciparum; Plasmodium falciparum", "result": "> 7400", "unit": "nM"}]}
{"smiles": "N=C(N)c1ccc(-c2ccc(-c3ccc(-c4ccc(C(=N)N)cc4)s3)s2)cc1", "note": "[Compound 26a, 5,5′-Bis-(4-amidinophenyl)-2,2′-bithiophene]", "values": [{"measurement": "IC50", "setting": "[1]", "result": 15, "unit": "nM"}, {"measurement": "IC50", "setting": "[1]; [4]", "result": "≤ 26", "unit": "nM"}, {"measurement": "IC50", "setting": "L-6 rat mycoblast cells", "result": 89400, "unit": "nM"}, {"measurement": "melting point", "result": "> 300", "unit": "°C"}, {"measurement": "IC50", "setting": "Plasmodium falciparum", "result": 22, "unit": "nM"}, {"measurement": "IC50", "setting": "Plasmodium falciparum; Plasmodium falciparum", "result": "≤ 22", "unit": "nM"}]}
{"smiles": "N=C(N)c1ccc(OCCCCCOc2ccc(C(=N)N)cc2)cc1", "note": "[Pentamidine, reference compound]", "values": [{"measurement": "IC50", "setting": "Leishmania donovani", "result": 2000, "unit": "nM"}, {"measurement": "Survival", "setting": "[2]; ip, 20 mg/kg", "result": ">42.75", "unit": "days"}, {"measurement": "Cures", "setting": "[2]; ip, 20 mg/kg", "result": "0/4"}]}
{"smiles": "N=C(N)c1ccnc(-c2ccc(-c3ccc(-c4cc(C(=N)N)ccn4)s3)s2)c1", "note": "[Compound 26b, 5,5′-Bis-(4-amidino-2-pyridyl)-2,2′-bithiophene]", "values": [{"measurement": "IC50", "setting": "[1]; [4]", "result": 36, "unit": "nM"}, {"measurement": "IC50", "setting": "Leishmania donovani", "result": "> 50000", "unit": "nM"}, {"measurement": "IC50", "setting": "L-6 rat mycoblast cells", "result": "> 159000", "unit": "nM"}, {"measurement": "melting point", "result": "> 300", "unit": "°C"}, {"measurement": "IC50", "setting": "Plasmodium falciparum; Plasmodium falciparum", "result": 34, "unit": "nM"}]}
{"smiles": "N=C(N)c1ccc(-c2ccc(-c3ccc(-c4ccc(C(=N)N)cn4)o3)o2)nc1", "note": "(as salt: salt) [Compound 22, 5,5′-Bis-(5-amidino-2-pyridyl)-2,2′-bifuran]", "values": [{"measurement": "melting point", "result": "> 300", "unit": "°C"}]}
{"smiles": "N=C(N)c1ccc2nc(-c3ccc(-c4ccc(C(=N)N)o4)o3)[nH]c2c1", "note": "[Compound 45]", "values": [{"measurement": "IC50", "setting": "L-6 rat mycoblast cells", "result": 41800, "unit": "nM"}, {"measurement": "Δ Tm", "setting": "polyA.polyT", "result": 23.2, "unit": "°C"}]}
{"smiles": "CC(=O)O.N=C(N)c1ccc(-c2ccc(-c3ccc(C(=N)N)o3)o2)nc1", "note": "[Compound 14, 6-(5′-Amidino-2,2′-bifuran-5-yl)-nicotinamidine acetate salt]", "values": [{"measurement": "IC50", "setting": "L-6 rat mycoblast cells", "result": 26900, "unit": "nM"}, {"measurement": "Δ Tm", "setting": "polyA.polyT", "result": 7.1, "unit": "°C"}, {"measurement": "Survival", "setting": "[2]; ip, 10 mg/kg", "result": ">51.25", "unit": "days"}, {"measurement": "in vivo activity against T. b. r. (in words)", "setting": "[2]", "result": "good in vivo activity"}, {"measurement": "cure rate compared with pentamidine and furamidine (in words)", "setting": "[2]", "result": "better cure rates than pentamidine and furamidine"}, {"measurement": "Cures", "setting": "[2]; ip, 10 mg/kg, acetate salt, 10 mg/kg", "result": "three mice out of four and 3/4"}]}
{"smiles": "Cl.N=C(N)c1ccc(-c2ccc(-c3ccc(-c4ccc(C(=N)N)cc4)o3)o2)cc1", "note": "[Compound 17, 5,5′-bis-(4-Amidinophenyl)-2,2′-bifuran hydrochloride salt]", "values": [{"measurement": "IC50", "setting": "[1]; [4]", "result": 126, "unit": "nM"}, {"measurement": "IC50", "setting": "Leishmania donovani", "result": 1000, "unit": "nM"}, {"measurement": "IC50", "setting": "L-6 rat mycoblast cells", "result": 10700, "unit": "nM"}, {"measurement": "IC50", "setting": "Plasmodium falciparum; Plasmodium falciparum", "result": "≤ 22", "unit": "nM"}, {"measurement": "IC50", "setting": "Plasmodium falciparum; hydrochloride salt", "result": 20, "unit": "nM"}, {"measurement": "Δ Tm", "setting": "polyA.polyT", "result": 23.6, "unit": "°C"}, {"measurement": "Survival", "setting": "[2]; ip, 10 mg/kg", "result": 24, "unit": "days"}, {"measurement": "Cures", "setting": "[2]; ip, 10 mg/kg", "result": "0/4"}]}
